The source of these data is PubChem BioAssay (NCI).

Holding throughout (experiment): NCI tumour cell line growth inhibition, 48 h
The test system of assay [1] is A498 renal.
For assay [2], the system named is A549 NSCLC.
Assay [3] deals with HCT-116 colon.
Assay [4] concerns HOP-92 NSCLC.
The subject of assay [5] is HT29 colon.
The subject of assay [6] is NCI-H23 lung.
Assay [7] deals with NCI-H460 lung.
Assay [8] has as its system NCI-H522 lung.
For assay [9], the system named is OVCAR-3 ovarian.
The subject of assay [10] is OVCAR-4 ovarian.
For assay [11], the system named is OVCAR-5 ovarian.
Assay [12] concerns RPMI-8226 leukemia.
Assay [13] deals with SF-539 CNS.
Assay [14] concerns SK-MEL-2 melanoma.
For assay [15], the system named is SN12C renal.
For assay [16], the system named is SNB-19 CNS.
Assay [17] deals with SNB-75 CNS.
For assay [18], the system named is SR leukemia.
In assay [19] the test system is SW-620 colon.

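These data come from cells grown in 96-well plates and exposed to compound for 48 hours at five concentrations. TGI: concentration producing complete growth inhibition.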 Where only a bound is given, the exact number is not on record here.

Regarding `CN(Cc1cnc2nc(N)nc(N)c2n1)c1ccc(C(=O)NC(CCC(=O)NCCC(P(=O)(O)O)P(=O)(O)O)C(=O)O)cc1` (stereo unspecified), the TGI in assay [1], in [2], in assay [3], in assay [4], in assay [5] and in [6] was greater than 100 µM throughout. Also, the TGI in [7], in [8], in assay [9], in assay [10], in assay [11] and in assay [12] was greater than 100 µM in each case. For the same compound, the TGI in assay [13], in assay [14], in [15], in [16], in assay [17] and in assay [18] was greater than 100 µM throughout. The compound also showed a TGI in assay [19] greater than 100 µM.

For the compound `C/C(=N\NC(=S)N1CCCCC1)c1nc2ncccc2[nH]1`, the TGI in [1] was 65.5 µM; in assay [2] it was 96.4 µM; in assay [3], 22.7 µM; in assay [4], 43.1 µM; in [5] it was greater than 100 µM; in [6], 57.5 µM. For the same compound, the TGI in assay [7] is 49.8 µM; in assay [8] it was 30.7 µM; in assay [9], greater than 100 µM; in assay [10], greater than 100 µM; in [11] it was 76.4 µM; in assay [12], 30.1 µM. Moreover, the TGI in [13] was 21.3 µM; in assay [14], greater than 100 µM; in assay [15], greater than 100 µM; in assay [16], greater than 100 µM; in assay [17], greater than 100 µM; in assay [18] it was 28.6 µM. In addition, in assay [19], the TGI was greater than 100 µM.

On to `O=C(NC(Cc1c[nH]c2ccccc12)C(=O)Nc1ccc(Br)cc1)OCc1ccccc1` (stereo unspecified), for which the TGI in assay [1] was 23.7 µM; in [2], greater than 100 µM; in assay [3], 23.7 µM; in assay [4], 19.1 µM; in assay [5], 21.6 µM; in [6], 26.5 µM. The TGI in [7] was found to be 20.1 µM; in [8], 28.6 µM; in assay [9], 36.6 µM; in assay [10], 23.6 µM; in assay [11], 35.1 µM; in assay [12], 34.2 µM. The TGI in assay [13] came out at 29.2 µM; in [14], 19.2 µM; in assay [15] it was 22.5 µM; in assay [16], 90.8 µM; in [17], 34.7 µM; in [18] it was 47.4 µM. The compound also had a TGI in assay [19] of 54.6 µM.

Turning to `Nc1c2c(nc3cc(F)c(F)cc13)CCC2`, the TGI in assay [1] was 61.2 µM; in assay [2], greater than 100 µM; in assay [3], greater than 100 µM; in [4] it was greater than 100 µM; in assay [5] it was greater than 100 µM; in assay [6], greater than 100 µM. Moreover, the TGI in [7] was 54 µM; in assay [8], greater than 100 µM; in assay [9] it was greater than 100 µM; in [10] it was greater than 100 µM; in [11], greater than 100 µM; in [12], greater than 100 µM. Besides, the TGI in [13], in [14], in [15], in assay [16], in assay [17] and in [18] was greater than 100 µM throughout. In addition, the TGI in [19] was greater than 100 µM.

`CN1CCN(C(=O)CCNC(=O)Cc2ccc(C(=O)c3ccccc3)cc2)CC1`: the TGI in [1], in [2], in assay [3], in [4], in assay [5] and in [6] was greater than 100 µM each time. Besides, the TGI in assay [7], in assay [8], in [9], in assay [10], in assay [11] and in [12] was greater than 100 µM in each case. The TGI in [13], in assay [14], in assay [15], in assay [16], in assay [17] and in assay [18] was greater than 100 µM each time. In assay [19], the TGI was greater than 100 µM.

Consider `CCCCC1=NNC(=O)C1`, for which the TGI in assay [1], in [2], in assay [3], in assay [4], in assay [5] and in [6] was greater than 100 µM in each case. The TGI in assay [7], in [8], in assay [9], in assay [10], in [11] and in assay [12] was greater than 100 µM throughout. Also, the TGI in [13], in [14], in [15], in assay [17], in assay [18] and in [19] was greater than 100 µM throughout.

Take `COC(=O)CC(C#N)(OP1(=O)OC(c2ccccc2)C(C)N1C)c1ccccc1` (stereo unspecified): the TGI in assay [1] was greater than 100 µM; in [2] it was greater than 100 µM; in [3], 52.4 µM; in assay [4], 85.8 µM; in [5] it was 53.2 µM; in [6], 97.9 µM. Besides, the TGI in assay [7] is 44.4 µM; in assay [8] it was greater than 100 µM; in assay [9], 42.6 µM; in assay [11] it was 69.6 µM; in assay [12] it was 70.2 µM; in assay [13], greater than 100 µM. The TGI in assay [14] was 95 µM; in assay [15], 77 µM; in [16] it was greater than 100 µM; in assay [17], greater than 100 µM; in assay [18], 74.8 µM; in assay [19] it was 43.6 µM.
